Laboratory results taken from PubChem BioAssay AID256 (DTP/NCI, 2004).
Toxic doses and inconclusive results are not listed. Rule for the calls: active = survival T/C of 150% or more; inactive = T/C below 125% in these data.

Tested on: CD2F1 mice, L1210 leukemia ip, survival T/C
Assay: NCI In Vivo Anticancer Drug Screen. Data for tumor model L1210 Leukemia (intraperitoneal) in CD2F1 (CDF1) mice
Settings: higher = longer survival
Outline: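 Implant tumor; dose compound or vehicle; measure endpoint in both groups; report treated divided by control.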

[1] = endpoint: mean survival time, dose: 100.0 mg/kg/injection, schedule: Q01DX009 (ip), vehicle: saline with Tween-80
[2] = endpoint: mean survival time, dose: 100.0 mg/kg/injection, schedule: Q04DX003 (ip), vehicle: saline with Tween-80
[3] = endpoint: mean survival time, dose: 200.0 mg/kg/injection, schedule: Q01DX009 (ip), vehicle: saline with Tween-80
[4] = endpoint: mean survival time, dose: 200.0 mg/kg/injection, schedule: Q04DX003 (ip), vehicle: saline with Tween-80
[5] = endpoint: mean survival time, dose: 400.0 mg/kg/injection, schedule: Q01DX009 (ip), vehicle: saline with Tween-80
[6] = endpoint: mean survival time, dose: 400.0 mg/kg/injection, schedule: Q04DX003 (ip), vehicle: saline with Tween-80
[7] = endpoint: mean survival time, dose: 50.0 mg/kg/injection, schedule: Q01DX009 (ip), vehicle: saline with Tween-80
[8] = endpoint: mean survival time, dose: 50.0 mg/kg/injection, schedule: Q01DX001 (ip), vehicle: saline
[9] = endpoint: mean survival time, dose: 100.0 mg/kg/injection, schedule: Q01DX001 (ip), vehicle: saline
[10] = endpoint: mean survival time, dose: 25.0 mg/kg/injection, schedule: Q04DX003 (ip), vehicle: saline with Tween-80
[11] = endpoint: mean survival time, dose: 12.5 mg/kg/injection, schedule: Q01DX009 (ip), vehicle: saline with Tween-80
[12] = endpoint: mean survival time, dose: 25.0 mg/kg/injection, schedule: Q01DX009 (ip), vehicle: saline with Tween-80

Measured: T/C

CN(C(=O)C(=O)c1ccccc1NC(=O)c1ccc(Cl)cc1)c1ccccc1
inactive: endpoint: mean survival time, dose: 25.0 mg/kg/injection, schedule: Q04DX003 (ip), vehicle: Klucel (hydroxypropylcellulose) (HPC) 102 % of control | endpoint: mean survival time, dose: 50.0 mg/kg/injection, schedule: Q04DX003 (ip), vehicle: Klucel (hydroxypropylcellulose) (HPC) 106 % of control | endpoint: mean survival time, dose: 100.0 mg/kg/injection, schedule: Q04DX003 (ip), vehicle: Klucel (hydroxypropylcellulose) (HPC) 104 % of control

CCOC(=O)C12CC=CC(CCC1)/C2=N\Nc1ccccc1 (stereo unspecified)
inactive: [1] 108 % of control | [2] 105 % of control | [3] 103 % of control | [4] 103 % of control | [5] 103 % of control | [6] 92 % of control

CC(C)c1ccc(C2CCCCC2O)cc1 (stereo unspecified)
inactive: [1] 89 % of control | [2] 105 % of control | [3] 92 % of control | [4] 91 % of control | [6] 94 % of control

Nc1ccccc1NS(=O)(=O)c1ccc(Cl)cc1
inactive: [1] 95 % of control | [3] 101 % of control | [5] 106 % of control

Cc1cc(O)c(C)c(C)c1Cl
inactive: [7] 102 % of control | [1] 104 % of control | [2] 94 % of control | [3] 91 % of control | [4] 98 % of control

COC1CCC(/C(C#N)=C/C2CCC(OC)C(OC)C2)CC1 (stereo unspecified)
inactive: endpoint: mean survival time, dose: 100.0 mg/kg/injection, schedule: Q04DX002 (ip), vehicle: saline with Tween-80 94 % of control | endpoint: mean survival time, dose: 200.0 mg/kg/injection, schedule: Q04DX002 (ip), vehicle: saline with Tween-80 94 % of control | endpoint: mean survival time, dose: 400.0 mg/kg/injection, schedule: Q04DX002 (ip), vehicle: saline with Tween-80 94 % of control

c1csc(C[N+]23CN4CN(CN(C4)C2)C3)c1
inactive: endpoint: median survival time, dose: 12.5 mg/kg/injection, schedule: Q01DX009 (ip), vehicle: saline 103 % of control | endpoint: median survival time, dose: 25.0 mg/kg/injection, schedule: Q01DX009 (ip), vehicle: saline 107 % of control | endpoint: median survival time, dose: 50.0 mg/kg/injection, schedule: Q01DX009 (ip), vehicle: saline 107 % of control | endpoint: median survival time, dose: 100.0 mg/kg/injection, schedule: Q01DX009 (ip), vehicle: saline 108 % of control | endpoint: median survival time, dose: 200.0 mg/kg/injection, schedule: Q01DX009 (ip), vehicle: saline 101 % of control | endpoint: median survival time, dose: 400.0 mg/kg/injection, schedule: Q01DX009 (ip), vehicle: saline 109 % of control

N=c1nc2c3ccccc3nnn2c2ccccc12
inactive: endpoint: mean survival time, dose: 50.0 mg/kg/injection, schedule: Q01DX001 (ip), vehicle: Klucel (hydroxypropylcellulose) (HPC) 101 % of control | endpoint: mean survival time, dose: 100.0 mg/kg/injection, schedule: Q01DX001 (ip), vehicle: Klucel (hydroxypropylcellulose) (HPC) 112 % of control

O=C(O)/C=C/c1ccco1
inactive: [1] 95 % of control | [2] 101 % of control | [3] 94 % of control | [4] 98 % of control | [5] 96 % of control | [6] 108 % of control

CN(C)C=Nc1ccc(C#N)cc1
inactive: [8] 97 % of control | [9] 97 % of control

Cc1ncc(COP(=O)(O)O)c(C=NC(Cc2ccc(O)c(O)c2)C(=O)O)c1O.O.[Cu] (stereo unspecified)
inactive: endpoint: mean survival time, dose: 12.5 mg/kg/injection, schedule: Q01DX001 (ip), vehicle: saline 100 % of control | endpoint: mean survival time, dose: 25.0 mg/kg/injection, schedule: Q01DX001 (ip), vehicle: saline 93 % of control | [8] 86 % of control

O=C(Nc1ccccc1)O/N=C(/c1ccccc1)c1cccnc1
inactive: endpoint: mean survival time, dose: 100.0 mg/kg/injection, schedule: Q01DX001 (ip), vehicle: other 104 % of control | endpoint: mean survival time, dose: 200.0 mg/kg/injection, schedule: Q01DX001 (ip), vehicle: other 104 % of control | endpoint: mean survival time, dose: 400.0 mg/kg/injection, schedule: Q01DX001 (ip), vehicle: other 98 % of control

C1CCC2CN(CCCN3CCOCC3)CC2C1 (stereo unspecified)
inactive: endpoint: mean survival time, dose: 100.0 mg/kg/injection, schedule: Q01DX009 (ip), vehicle: saline 102 % of control | endpoint: mean survival time, dose: 200.0 mg/kg/injection, schedule: Q01DX009 (ip), vehicle: saline 96 % of control

CCCCOC(=O)c1ccccc1C(=O)O.CCCCOC(=O)c1ccccc1C(=O)O.[Cu+2]
inactive: endpoint: mean survival time, dose: 6.25 mg/kg/injection, schedule: Q04DX003 (ip), vehicle: saline with Tween-80 91 % of control | endpoint: mean survival time, dose: 12.5 mg/kg/injection, schedule: Q04DX003 (ip), vehicle: saline with Tween-80 95 % of control | [10] 93 % of control

COC(=O)C(=[N+]=[N-])C(=O)OC
inactive: [1] 93 % of control | [2] 101 % of control | [3] 93 % of control | [4] 101 % of control | [5] 91 % of control | [6] 98 % of control

COC1(OC)CCC(OC)(OC)C(OC)(OC)C1(OC)OC
inactive: [2] 96 % of control | [4] 94 % of control | [6] 102 % of control

NNc1nc(=O)[nH]nc1SCc1ccccc1
inactive: endpoint: mean survival time, dose: 75.0 mg/kg/injection, schedule: Q01DX001 (ip), vehicle: saline 96 % of control | endpoint: mean survival time, dose: 150.0 mg/kg/injection, schedule: Q01DX001 (ip), vehicle: saline 88 % of control

CCCC(=O)c1c(C)cc(C)cc1C
inactive: endpoint: mean survival time, dose: 100.0 mg/kg/injection, schedule: Q04DX003 (ip), vehicle: other 98 % of control | endpoint: mean survival time, dose: 200.0 mg/kg/injection, schedule: Q04DX003 (ip), vehicle: other 104 % of control | endpoint: mean survival time, dose: 400.0 mg/kg/injection, schedule: Q04DX003 (ip), vehicle: other 98 % of control

ClP1(c2ccccc2)=NP(Cl)(c2ccccc2)=NP(Cl)(c2ccccc2)=NP(Cl)(c2ccccc2)=N1 (stereo unspecified)
inactive: [2] 96 % of control | [4] 94 % of control

ClC1=CCCCC1
inactive: endpoint: mean survival time, dose: 100.0 mg/kg/injection, schedule: Q04DX003 (ip), vehicle: acetone 102 % of control

CC1CCC(=O)O1 (stereo unspecified)
inactive: endpoint: mean survival time, dose: 100.0 mg/kg/injection, schedule: Q04DX002 (ip), vehicle: saline 98 % of control | endpoint: mean survival time, dose: 200.0 mg/kg/injection, schedule: Q04DX002 (ip), vehicle: saline 98 % of control | endpoint: mean survival time, dose: 400.0 mg/kg/injection, schedule: Q04DX002 (ip), vehicle: saline 98 % of control

COC(=N)Cc1ccc(OC)c(OC)c1
inactive: [2] 102 % of control | [4] 96 % of control | [6] 94 % of control

C=CCOCC(O)CNc1ccccc1 (stereo unspecified)
inactive: [7] 101 % of control | [1] 101 % of control | [3] 96 % of control

CC(=S)NC(O)C(=O)c1ccccc1 (stereo unspecified)
inactive: [11] 101 % of control | [12] 98 % of control | [7] 98 % of control | [1] 104 % of control | [3] 93 % of control | [5] 115 % of control

Cc1ccc(Cl)cc1NC(=O)c1ccc([N+](=O)[O-])cc1
inactive: [2] 90 % of control

CC(=O)OC12C=C(C)C(C3C(=O)OC(=O)C31)C(C)(C)C2 (stereo unspecified)
inactive: [9] 103 % of control | endpoint: mean survival time, dose: 200.0 mg/kg/injection, schedule: Q01DX001 (ip), vehicle: saline 101 % of control

CN(C)CC1CCCCC1OC(=O)c1ccccc1 (stereo unspecified)
inactive: [10] 93 % of control | endpoint: mean survival time, dose: 50.0 mg/kg/injection, schedule: Q04DX003 (ip), vehicle: saline with Tween-80 97 % of control | [2] 97 % of control | endpoint: mean survival time, dose: 100.0 mg/kg/injection, schedule: Q04DX003 (ip), vehicle: water 96 % of control

O=S(=O)(N=N/C=C1\C=CC=CN1O)c1cccs1
inactive: [11] 95 % of control | [12] 101 % of control | [7] 103 % of control | [1] 109 % of control | [3] 104 % of control
